Results from PubChem BioAssay AID2060910 (Molecular Pharmacology Branch, DTP, NCI, 2025).

Test system: 242566-281-R-J2-PDC complex spheroid viability
Assay: Anticancer human tumor 242566-281-R-J2-PDC patient-derived pancreatic carcinoma cell line growth inhibition [RAS]
Settings: for IC50: curve of first compound; for viability, T/C: stronger effect = lower value
Method in brief: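 Multi-cell-type spheroids: tumor cells plus HUVEC endothelial cells and mesenchymal stem cells. RAS-pathway inhibitors were combined with targeted agents, each dosed in half-log steps down from clinical Cmax, or from 10 microM when Cmax was unknown.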

[1] = second compound 0.000949 µM, first compound 0.0316 µM
[2] = second compound 0.000949 µM, first compound 0.1 µM
[3] = second compound 0.000949 µM, first compound 0.316 µM
[4] = second compound 0.000949 µM, first compound 1 µM
[5] = second compound 0.000949 µM, first compound 3.16 µM
[6] = second compound 0.000949 µM, first compound 10 µM
[7] = second compound 0.003 µM, first compound 0.0316 µM
[8] = second compound 0.003 µM, first compound 0.1 µM
[9] = second compound 0.003 µM, first compound 0.316 µM
[10] = second compound 0.003 µM, first compound 1 µM
[11] = second compound 0.003 µM, first compound 3.16 µM
[12] = second compound 0.003 µM, first compound 10 µM
[13] = second compound 0.00949 µM, first compound 0.0316 µM
[14] = second compound 0.00949 µM, first compound 0.1 µM
[15] = second compound 0.00949 µM, first compound 0.316 µM
[16] = second compound 0.00949 µM, first compound 1 µM
[17] = second compound 0.00949 µM, first compound 3.16 µM
[18] = second compound 0.00949 µM, first compound 10 µM
[19] = second compound 0.03 µM, first compound 0.0316 µM
[20] = second compound 0.03 µM, first compound 0.1 µM
[21] = second compound 0.03 µM, first compound 0.316 µM
[22] = second compound 0.03 µM, first compound 1 µM
[23] = second compound 0.03 µM, first compound 3.16 µM
[24] = second compound 0.03 µM, first compound 10 µM
[25] = second compound 0.0949 µM, first compound 0.0316 µM
[26] = second compound 0.0949 µM, first compound 0.1 µM
[27] = second compound 0.0949 µM, first compound 0.316 µM
[28] = second compound 0.0949 µM, first compound 1 µM
[29] = second compound 0.0949 µM, first compound 3.16 µM
[30] = second compound 0.0949 µM, first compound 10 µM
[31] = second compound 0.3 µM, first compound 0.0316 µM
[32] = second compound 0.3 µM, first compound 0.1 µM
[33] = second compound 0.3 µM, first compound 0.316 µM
[34] = second compound 0.3 µM, first compound 1 µM
[35] = second compound 0.3 µM, first compound 3.16 µM
[36] = second compound 0.3 µM, first compound 10 µM
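Also: spheroids exposed to compound for 7 days before readout.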
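For viability, T/C in this document: 100% = DMSO vehicle control wells.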

Cc1nc(N2CCC3(CC2)COC(C)C3N)c(CO)nc1Sc1ccnc(N)c1Cl (stereo unspecified) + CCn1c(-c2cc(N3CCN(C)CC3)cnc2C(C)OC)c2c3cc(ccc31)-c1csc(n1)CC(NC(=O)C1CC1C)C(=O)N1CCCC(N1)C(=O)OCC(C)(C)C2 gave an IC50 (second compound 0.000949 µM) of 353 nM, an IC50 (second compound 0.003 µM) of 71.8 nM and an IC50 (second compound 0.00949 µM) of under 31.6 nM. It also gave an IC50 (second compound 0.03 µM) of under 31.6 nM, an IC50 (second compound 0.0949 µM) of under 31.6 nM and an IC50 (second compound 0.3 µM) of under 31.6 nM. It also gave a viability, T/C [1] of 92.2%, a viability, T/C [2] of 69.8% and a viability, T/C [3] of 43.5%. For the same molecule, the viability, T/C [4] was 45%, the viability, T/C [5] was 32.9% and the viability, T/C [6] was 19.8%. The viability, T/C [7] was 61%, the viability, T/C [8] was 46.9% and the viability, T/C [9] was 31%. It also gave a viability, T/C [10] of 28.2%, a viability, T/C [11] of 26.1% and a viability, T/C [12] of 16.1%. For the same molecule, the viability, T/C [13] was 41.3%, the viability, T/C [14] was 26.4% and the viability, T/C [15] was 27.9%. It also gave a viability, T/C [16] of 21.9%, a viability, T/C [17] of 19.4% and a viability, T/C [18] of 17.1%. The viability, T/C [19] was 25.8%, the viability, T/C [20] was 24.3% and the viability, T/C [21] was 19.3%. For the same molecule, the viability, T/C [22] was 17.9%, the viability, T/C [23] was 15.1% and the viability, T/C [24] was 14.9%. For the same molecule, the viability, T/C [25] was 21.5%, the viability, T/C [26] was 19.1% and the viability, T/C [27] was 18.5%. It also gave a viability, T/C [28] of 16.9%, a viability, T/C [29] of 14.3% and a viability, T/C [30] of 15.4%. It also gave a viability, T/C [31] of 21.5%, a viability, T/C [32] of 18.1% and a viability, T/C [33] of 16.6%. For the same molecule, the viability, T/C [34] was 14.8%, the viability, T/C [35] was 16.4% and the viability, T/C [36] was 12.9%.
NC1c2ccccc2OC12CCN(c1cnc3c(N4CCCc5ncccc54)n[nH]c3n1)CC2 (stereo unspecified) + CCn1c(-c2cc(N3CCN(C)CC3)cnc2C(C)OC)c2c3cc(ccc31)-c1csc(n1)CC(NC(=O)C1CC1C)C(=O)N1CCCC(N1)C(=O)OCC(C)(C)C2 gave an IC50 (second compound 0.000949 µM) of 50.8 nM, an IC50 (second compound 0.003 µM) of under 31.6 nM and an IC50 (second compound 0.00949 µM) of under 31.6 nM. The IC50 (second compound 0.03 µM) was under 31.6 nM, the IC50 (second compound 0.0949 µM) was under 31.6 nM and the IC50 (second compound 0.3 µM) was under 31.6 nM. The viability, T/C [1] was 58.2%, the viability, T/C [2] was 40.6% and the viability, T/C [3] was 20.6%. The viability, T/C [4] was 24.9%, the viability, T/C [5] was 21.2% and the viability, T/C [6] was 8.53%. The viability, T/C [7] was 42.9%, the viability, T/C [8] was 26.4% and the viability, T/C [9] was 18.9%. For the same molecule, the viability, T/C [10] was 21.3%, the viability, T/C [11] was 18.4% and the viability, T/C [12] was 6.57%. The viability, T/C [13] was 31.6%, the viability, T/C [14] was 19.2% and the viability, T/C [15] was 18.1%. For the same molecule, the viability, T/C [16] was 15.8%, the viability, T/C [17] was 13.4% and the viability, T/C [18] was 7.23%. For the same molecule, the viability, T/C [19] was 23.1%, the viability, T/C [20] was 18.1% and the viability, T/C [21] was 15.7%. For the same molecule, the viability, T/C [22] was 15.2%, the viability, T/C [23] was 12.8% and the viability, T/C [24] was 7.77%. It also gave a viability, T/C [25] of 20.1%, a viability, T/C [26] of 16.8% and a viability, T/C [27] of 14.8%. The viability, T/C [28] was 13.6%, the viability, T/C [29] was 11.8% and the viability, T/C [30] was 7.6%. For the same molecule, the viability, T/C [31] was 15.6%, the viability, T/C [32] was 15.4% and the viability, T/C [33] was 14.4%. It also gave a viability, T/C [34] of 10.6%, a viability, T/C [35] of 9.17% and a viability, T/C [36] of 4.89%.
For Nc1ccn(C2OC(CO)C(O)C2(F)F)c(=O)n1 (stereo unspecified) + CCn1c(-c2cc(N3CCN(C)CC3)cnc2C(C)OC)c2c3cc(ccc31)-c1csc(n1)CC(NC(=O)C1CC1C)C(=O)N1CCCC(N1)C(=O)OCC(C)(C)C2, the IC50 (second compound 0.000949 µM) was 40.1 nM, the IC50 (second compound 0.003 µM) was 22.8 nM and the IC50 (second compound 0.00949 µM) was under 3.16 nM. The IC50 (second compound 0.03 µM) was under 3.16 nM, the IC50 (second compound 0.0949 µM) was under 3.16 nM and the IC50 (second compound 0.3 µM) was under 3.16 nM. The viability, T/C (second compound 0.000949 µM, first compound 0.00316 µM) was 94.2%, the viability, T/C (second compound 0.000949 µM, first compound 0.01 µM) was 87.7% and the viability, T/C [1] was 46.2%. The viability, T/C [2] was 36.5%, the viability, T/C [3] was 20.9% and the viability, T/C [4] was 10.3%. For the same molecule, the viability, T/C (second compound 0.003 µM, first compound 0.00316 µM) was 78.2%, the viability, T/C (second compound 0.003 µM, first compound 0.01 µM) was 57.9% and the viability, T/C [7] was 43.5%. The viability, T/C [8] was 35.3%, the viability, T/C [9] was 24.3% and the viability, T/C [10] was 10.9%. It also gave a viability, T/C (second compound 0.00949 µM, first compound 0.00316 µM) of 50.5%, a viability, T/C (second compound 0.00949 µM, first compound 0.01 µM) of 36.2% and a viability, T/C [13] of 38.3%. For the same molecule, the viability, T/C [14] was 28.5%, the viability, T/C [15] was 20.7% and the viability, T/C [16] was 16.6%. The viability, T/C (second compound 0.03 µM, first compound 0.00316 µM) was 30.6%, the viability, T/C (second compound 0.03 µM, first compound 0.01 µM) was 27.1% and the viability, T/C [19] was 25.5%. It also gave a viability, T/C [20] of 20.9%, a viability, T/C [21] of 16.9% and a viability, T/C [22] of 16.7%. For the same molecule, the viability, T/C (second compound 0.0949 µM, first compound 0.00316 µM) was 22.3%, the viability, T/C (second compound 0.0949 µM, first compound 0.01 µM) was 21.4% and the viability, T/C [25] was 21.3%. It also gave a viability, T/C [26] of 19.2%, a viability, T/C [27] of 11.7% and a viability, T/C [28] of 13.9%. It also gave a viability, T/C (second compound 0.3 µM, first compound 0.00316 µM) of 19.7%, a viability, T/C (second compound 0.3 µM, first compound 0.01 µM) of 18.2% and a viability, T/C [31] of 18.5%. The viability, T/C [32] was 14.5%, the viability, T/C [33] was 13.1% and the viability, T/C [34] was 14.4%.
